{"source": "paper PMC8619046", "about": "“ABCB1 and ABCG2 Control Brain Accumulation and Intestinal Disposition of the Novel ROS1/TRK/ALK Inhibitor Repotrectinib, While OATP1A/1B, ABCG2, and CYP3A Limit Its Oral Availability” (Pharmaceutics, 2021)", "key": {"[1]": {"target": "T1, endogenous canine ABCB1 (Canis lupus familiaris, UniProt C0KKU9)", "T1 construct": "the low-level endogenous canine ABCB1 present in MDCK-II cells; host or cells: parental MDCK-II cells (canine kidney)", "T1 sequence (C0KKU9 1-1281)": "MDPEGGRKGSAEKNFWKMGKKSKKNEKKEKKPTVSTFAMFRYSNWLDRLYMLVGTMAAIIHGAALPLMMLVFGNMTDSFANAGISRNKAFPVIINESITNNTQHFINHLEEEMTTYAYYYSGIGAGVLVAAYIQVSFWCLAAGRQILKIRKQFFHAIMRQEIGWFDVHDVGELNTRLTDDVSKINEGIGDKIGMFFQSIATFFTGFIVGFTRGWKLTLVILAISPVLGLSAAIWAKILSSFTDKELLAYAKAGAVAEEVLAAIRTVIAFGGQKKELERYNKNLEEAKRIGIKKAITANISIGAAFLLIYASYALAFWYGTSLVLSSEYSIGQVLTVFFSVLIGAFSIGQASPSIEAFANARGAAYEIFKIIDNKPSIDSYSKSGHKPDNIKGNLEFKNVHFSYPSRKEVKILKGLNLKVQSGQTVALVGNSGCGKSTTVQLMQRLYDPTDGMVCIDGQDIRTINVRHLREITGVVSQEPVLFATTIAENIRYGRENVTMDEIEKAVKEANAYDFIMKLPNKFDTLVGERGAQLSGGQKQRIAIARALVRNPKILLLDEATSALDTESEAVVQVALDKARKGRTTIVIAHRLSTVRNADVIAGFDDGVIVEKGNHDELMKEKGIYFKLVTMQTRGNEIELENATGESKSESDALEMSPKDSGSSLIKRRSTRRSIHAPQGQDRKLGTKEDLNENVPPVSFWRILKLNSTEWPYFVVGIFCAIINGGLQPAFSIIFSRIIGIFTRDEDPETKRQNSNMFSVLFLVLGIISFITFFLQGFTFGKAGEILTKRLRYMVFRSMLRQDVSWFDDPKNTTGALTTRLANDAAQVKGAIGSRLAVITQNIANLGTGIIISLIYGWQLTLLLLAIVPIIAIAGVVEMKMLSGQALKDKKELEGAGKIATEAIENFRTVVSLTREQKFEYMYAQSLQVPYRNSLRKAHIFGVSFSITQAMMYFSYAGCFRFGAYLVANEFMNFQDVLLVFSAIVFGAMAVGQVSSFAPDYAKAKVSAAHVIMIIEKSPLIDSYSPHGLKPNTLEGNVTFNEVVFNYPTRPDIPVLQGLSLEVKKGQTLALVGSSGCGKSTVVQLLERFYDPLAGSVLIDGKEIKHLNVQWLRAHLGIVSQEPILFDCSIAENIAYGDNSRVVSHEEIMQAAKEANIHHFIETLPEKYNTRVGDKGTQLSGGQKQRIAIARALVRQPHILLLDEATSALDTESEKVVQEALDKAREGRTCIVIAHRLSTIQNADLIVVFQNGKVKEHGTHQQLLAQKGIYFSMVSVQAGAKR", "assay": "Transepithelial transport, parental MDCK-II cells", "format": "in vitro ADME", "details": "dog, pH 7.4, repotrectinib 5 µM, no inhibitor, read-out: efflux transport ratio r", "description": "(§1) Polarized Madin-Darby Canine Kidney (MDCK-II) cells (ECACC 00062107) stably transduced with either human (h) ABCB1, hABCG2 or mouse (m) Abcg2 cDNA were generated in our institute between 1995–2005. The proper identity and functionality, such as highly characteristic growth and drug transporter properties, including inhibitor sensitivity, were regularly checked in these epithelial cells. Mycoplasma routinely tested negative in these cells. The passage number was 10–15 when used in the transport experiments.\n(§2) Transepithelial transport experiments were performed as previously described with 12-well plates (Transwell 3414, Corning Inc., Kennebunk, ME, USA) containing microporous polycarbonate membrane filters (3.0 µm pore size, 12 mm diameter). […]\n(§3) After pre-incubation with 5 µM zosuquidar (ABCB1 inhibitor) and/or 5 µM Ko143 (ABCG2/Abcg2 inhibitor) in both compartments (when appropriate) for 1 h, the transport phase was initiated (t = 0) by replacing the medium in apical and basolateral compartments with fresh DMEM with 10% FBS and the appropriate inhibitor(s), and repotrectinib at 5 µM in the donor compartment. […] The active transport ratio r, calculated by dividing the amount of apically directed drug transport by basolaterally directed drug translocation after 8 h, was used to assess active transport of repotrectinib."}, "[2]": {"test_system": "T2, endogenous canine ABCB1", "T2 construct": "the low-level endogenous canine ABCB1 present in MDCK-II cells; host or cells: parental MDCK-II cells (canine kidney)", "assay": "Transepithelial transport, parental MDCK-II cells", "format": "in vitro ADME", "details": "dog, pH 7.4, with zosuquidar 5 µM, 5 µM, + zosuquidar 5 µM, read-out: efflux transport ratio r", "description": "as §1, §2, §3"}, "[3]": {"assay": "Oral plasma pharmacokinetics compared across experiments and mouse strains", "format": "in vivo, mice", "description": "Mice with similar average ages (and body weights) were randomly allocated in experimental groups as far as possible. Mice were maintained in a temperature-controlled and specific pathogen-free environment with a 12-h light and 12-h dark cycle and they received a standard diet (Transbreed, SDS Diets, Technilab-BMI, Someren, The Netherlands) and acidified water ad libitum. […] Given the objective main readout (repotrectinib plasma and tissue concentrations as measured by LC-MS/MS), no blinding method was applied.\nRepotrectinib was dissolved in dimethyl sulfoxide (DMSO) at a concentration of 50 mg/mL. […]\nA sensitive and specific liquid chromatography-tandem mass spectrometry method using protein precipitation pre-treatment was adopted to quantify the concentration of repotrectinib in DMEM medium, plasma samples and tissue homogenates.\nA non-compartmental model using the PKSolver add-in program for Microsoft Excel was adopted to calculate the pharmacokinetic parameters of repotrectinib. Oral availability was assessed by the plasma area under the curve (AUC), calculated using repotrectinib plasma concentration-time curves with the linear trapezoidal rule without extrapolating the infinity. […]"}}}
{"compound": "C[C@H]1CNC(=O)c2cnn3ccc(nc23)N[C@H](C)c2cc(F)ccc2O1", "note": "[repotrectinib]", "values": [{"measurement": "efflux ratio at 8 h, 5 µM", "setting": "[1]", "result": 2.5}, {"measurement": "efflux ratio at 8 h, 5 µM", "setting": "[2]", "result": 1}, {"measurement": "Tmax", "setting": "[3]; plasma, 10 mg/kg, all tested mouse strains, oral administration", "result": "~30", "unit": "min"}, {"measurement": "plasma levels, female relative to male mice", "setting": "[3]; same oral dose 10 mg/kg, Figure 3 vs Figure S1", "result": "about 1.6 fold"}]}
